Measured values taken from paper PMC8174729, “Inhibition of CMP-sialic acid transport by endogenous 5-methyl CMP” (PLoS ONE, 2021).

Assays:
[1] = target: T1, CMP-sialic acid transporter (CST) (Mus musculus, UniProt Q61420); assay: FSEC thermal shift binding assay with Kd (also inhibits [3H]CMP-Sia uptake in Sf9 cells, IC50 […]); design: gene Slc35a1; Full-length, GFP-tagged mouse CST
T1 sequence (Q61420 1-336): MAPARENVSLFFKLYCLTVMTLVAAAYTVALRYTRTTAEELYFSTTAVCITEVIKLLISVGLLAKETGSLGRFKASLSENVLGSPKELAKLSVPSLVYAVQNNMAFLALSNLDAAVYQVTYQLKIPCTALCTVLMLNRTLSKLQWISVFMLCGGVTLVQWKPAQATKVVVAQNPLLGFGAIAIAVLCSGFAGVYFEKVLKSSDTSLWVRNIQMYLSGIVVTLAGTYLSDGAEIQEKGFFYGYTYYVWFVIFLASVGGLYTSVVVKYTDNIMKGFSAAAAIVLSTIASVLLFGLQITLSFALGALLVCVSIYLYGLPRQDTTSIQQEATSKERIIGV

[2] = target: T1, CMP-sialic acid transporter (CST); assay: X-ray crystal structure at […] Å; FSEC thermal shift binding assay with Kd (also inhibits [3H]CMP-Sia uptake in Sf9 cells, IC50 […]); design: gene Slc35a1; Kd: full-length, GFP-tagged mouse CST; crystal: CSTΔC construct, which lacks the last 15 residues (322–336)

| Kd [1] | Kd [2] | SMILES |
| --- | --- | --- |
| 16.1 µM | – | Nc1ccn([C@@H]2O[C@H](COP(=O)(O)O)[C@@H](O)[C@H]2O)c(=O)n1 [CMP] |
| – | 1 µM | Cc1cn([C@@H]2O[C@H](COP(=O)(O)O)[C@@H](O)[C@H]2O)c(=O)nc1N [m5CMP, 5-methyl CMP] |
